Data as given in PMC4977286 (Frontiers in Pharmacology, 2016).
Read-outs that look alike come from different tables or passages of the source.

Tests used:
rat liver microsomes = settings: for TNP-G formation, Liver microsome: rat
UGT1A1 = target: T1, UGT1A1 (Homo sapiens, UniProt P22309)
T1 sequence (P22309 26-533): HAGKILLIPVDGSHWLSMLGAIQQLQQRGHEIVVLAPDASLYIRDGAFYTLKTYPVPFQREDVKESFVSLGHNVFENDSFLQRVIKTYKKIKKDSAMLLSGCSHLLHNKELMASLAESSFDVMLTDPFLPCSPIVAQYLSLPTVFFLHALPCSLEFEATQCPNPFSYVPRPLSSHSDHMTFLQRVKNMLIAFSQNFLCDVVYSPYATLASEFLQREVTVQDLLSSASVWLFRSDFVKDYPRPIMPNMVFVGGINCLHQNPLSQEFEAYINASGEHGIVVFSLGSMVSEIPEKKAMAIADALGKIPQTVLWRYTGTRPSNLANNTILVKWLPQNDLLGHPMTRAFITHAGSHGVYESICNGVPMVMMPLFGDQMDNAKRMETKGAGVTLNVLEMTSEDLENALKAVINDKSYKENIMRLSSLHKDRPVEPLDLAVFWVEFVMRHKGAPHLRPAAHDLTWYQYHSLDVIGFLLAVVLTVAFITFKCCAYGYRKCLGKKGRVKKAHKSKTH

MRP2 [1] = target: MRP2 (Rattus norvegicus, UniProt Q63120); experiment: Bile clearance of TNP-G in SCRH with MRP2 inhibitors or inducer; settings: for BEI of TNP-G, % of the control cells: TNP-G 20 μM; for BEI of TNP-G, % of the control cells / CLbile, int of TNP-G decreased by: inhibitor 100 μM
MRP2 [2] = target: T2, MRP2 (Homo sapiens, UniProt Q92887); type: biochemical; parameters: purchased BD Gentest Co. (Woburn, MA)
[3] = rat, in vivo
P-gp [4] = tested on: P-gp
BCRP = target: T3, BCRP (Homo sapiens, UniProt Q9UNQ0)
T3 sequence (Q9UNQ0 1-655): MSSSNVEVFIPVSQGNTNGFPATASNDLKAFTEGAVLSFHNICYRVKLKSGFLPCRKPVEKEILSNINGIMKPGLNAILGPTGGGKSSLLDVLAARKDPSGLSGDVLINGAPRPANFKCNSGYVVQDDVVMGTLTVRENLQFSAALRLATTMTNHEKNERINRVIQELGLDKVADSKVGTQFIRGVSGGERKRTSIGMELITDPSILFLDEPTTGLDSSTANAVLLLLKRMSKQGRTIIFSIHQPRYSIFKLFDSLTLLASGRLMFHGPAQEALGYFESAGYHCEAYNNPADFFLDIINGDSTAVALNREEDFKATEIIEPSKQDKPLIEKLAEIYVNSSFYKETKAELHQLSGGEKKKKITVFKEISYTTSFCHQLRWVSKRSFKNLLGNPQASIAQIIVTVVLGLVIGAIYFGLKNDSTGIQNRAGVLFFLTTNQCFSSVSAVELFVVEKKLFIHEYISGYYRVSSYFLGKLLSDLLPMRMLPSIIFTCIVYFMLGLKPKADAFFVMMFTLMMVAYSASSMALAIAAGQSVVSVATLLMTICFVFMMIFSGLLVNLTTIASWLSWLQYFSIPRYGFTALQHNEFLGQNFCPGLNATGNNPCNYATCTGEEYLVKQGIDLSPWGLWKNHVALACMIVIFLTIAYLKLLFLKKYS

MDR1 = MDR1 (Homo sapiens, UniProt P08183)
[5] = cited from earlier work
[6] = mouse, in vivo
MRP2 [7] = target: T2, MRP2
in vivo [8] = settings: mouse, po, 12 mg/kg
in vivo [9] = settings: rat
P-gp [10] = target: P-gp (Homo sapiens, UniProt P08183)
[11] = tested on: sandwich-cultured rat hepatocytes (SCRH)

Chain of MRP2 (Rattus norvegicus, UniProt Q63120) (Q63120 whole entry): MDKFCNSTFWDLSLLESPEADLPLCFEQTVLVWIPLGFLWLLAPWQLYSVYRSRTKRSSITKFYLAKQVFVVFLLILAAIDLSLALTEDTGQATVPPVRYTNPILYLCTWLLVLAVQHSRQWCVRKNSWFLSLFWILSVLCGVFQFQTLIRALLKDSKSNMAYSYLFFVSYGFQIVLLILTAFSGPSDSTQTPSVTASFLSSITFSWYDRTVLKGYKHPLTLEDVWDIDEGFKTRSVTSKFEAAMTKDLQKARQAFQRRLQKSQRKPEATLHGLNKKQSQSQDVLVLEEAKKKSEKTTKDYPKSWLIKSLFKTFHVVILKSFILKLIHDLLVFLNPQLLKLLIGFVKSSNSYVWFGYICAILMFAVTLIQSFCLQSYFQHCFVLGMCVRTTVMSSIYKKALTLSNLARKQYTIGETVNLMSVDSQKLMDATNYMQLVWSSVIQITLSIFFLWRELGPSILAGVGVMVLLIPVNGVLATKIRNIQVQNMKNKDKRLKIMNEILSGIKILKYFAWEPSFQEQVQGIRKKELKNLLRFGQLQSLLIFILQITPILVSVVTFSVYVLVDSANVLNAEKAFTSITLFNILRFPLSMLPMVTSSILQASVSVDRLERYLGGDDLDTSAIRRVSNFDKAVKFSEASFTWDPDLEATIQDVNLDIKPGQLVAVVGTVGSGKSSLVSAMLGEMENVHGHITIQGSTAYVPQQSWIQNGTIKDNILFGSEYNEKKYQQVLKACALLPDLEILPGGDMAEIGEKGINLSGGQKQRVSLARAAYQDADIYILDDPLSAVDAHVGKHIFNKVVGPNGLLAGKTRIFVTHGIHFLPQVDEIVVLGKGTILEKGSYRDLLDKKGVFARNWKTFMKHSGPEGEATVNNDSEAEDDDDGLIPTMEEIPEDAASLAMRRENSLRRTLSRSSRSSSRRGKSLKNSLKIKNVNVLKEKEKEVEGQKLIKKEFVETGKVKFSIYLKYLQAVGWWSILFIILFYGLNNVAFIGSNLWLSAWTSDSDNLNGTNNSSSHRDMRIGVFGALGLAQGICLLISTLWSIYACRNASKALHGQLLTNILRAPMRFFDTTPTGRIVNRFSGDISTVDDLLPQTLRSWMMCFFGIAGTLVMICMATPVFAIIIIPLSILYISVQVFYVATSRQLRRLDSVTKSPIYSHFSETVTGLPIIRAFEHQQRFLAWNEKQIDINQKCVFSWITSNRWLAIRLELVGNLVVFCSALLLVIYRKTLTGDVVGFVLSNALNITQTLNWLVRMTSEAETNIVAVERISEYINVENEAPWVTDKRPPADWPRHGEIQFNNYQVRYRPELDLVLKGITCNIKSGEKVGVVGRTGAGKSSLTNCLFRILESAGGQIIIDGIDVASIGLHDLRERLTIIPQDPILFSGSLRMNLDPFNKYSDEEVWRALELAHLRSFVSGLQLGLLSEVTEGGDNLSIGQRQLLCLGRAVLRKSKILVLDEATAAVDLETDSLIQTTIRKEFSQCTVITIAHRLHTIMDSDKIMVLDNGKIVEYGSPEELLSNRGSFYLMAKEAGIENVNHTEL
T2 sequence (Q92887 whole entry): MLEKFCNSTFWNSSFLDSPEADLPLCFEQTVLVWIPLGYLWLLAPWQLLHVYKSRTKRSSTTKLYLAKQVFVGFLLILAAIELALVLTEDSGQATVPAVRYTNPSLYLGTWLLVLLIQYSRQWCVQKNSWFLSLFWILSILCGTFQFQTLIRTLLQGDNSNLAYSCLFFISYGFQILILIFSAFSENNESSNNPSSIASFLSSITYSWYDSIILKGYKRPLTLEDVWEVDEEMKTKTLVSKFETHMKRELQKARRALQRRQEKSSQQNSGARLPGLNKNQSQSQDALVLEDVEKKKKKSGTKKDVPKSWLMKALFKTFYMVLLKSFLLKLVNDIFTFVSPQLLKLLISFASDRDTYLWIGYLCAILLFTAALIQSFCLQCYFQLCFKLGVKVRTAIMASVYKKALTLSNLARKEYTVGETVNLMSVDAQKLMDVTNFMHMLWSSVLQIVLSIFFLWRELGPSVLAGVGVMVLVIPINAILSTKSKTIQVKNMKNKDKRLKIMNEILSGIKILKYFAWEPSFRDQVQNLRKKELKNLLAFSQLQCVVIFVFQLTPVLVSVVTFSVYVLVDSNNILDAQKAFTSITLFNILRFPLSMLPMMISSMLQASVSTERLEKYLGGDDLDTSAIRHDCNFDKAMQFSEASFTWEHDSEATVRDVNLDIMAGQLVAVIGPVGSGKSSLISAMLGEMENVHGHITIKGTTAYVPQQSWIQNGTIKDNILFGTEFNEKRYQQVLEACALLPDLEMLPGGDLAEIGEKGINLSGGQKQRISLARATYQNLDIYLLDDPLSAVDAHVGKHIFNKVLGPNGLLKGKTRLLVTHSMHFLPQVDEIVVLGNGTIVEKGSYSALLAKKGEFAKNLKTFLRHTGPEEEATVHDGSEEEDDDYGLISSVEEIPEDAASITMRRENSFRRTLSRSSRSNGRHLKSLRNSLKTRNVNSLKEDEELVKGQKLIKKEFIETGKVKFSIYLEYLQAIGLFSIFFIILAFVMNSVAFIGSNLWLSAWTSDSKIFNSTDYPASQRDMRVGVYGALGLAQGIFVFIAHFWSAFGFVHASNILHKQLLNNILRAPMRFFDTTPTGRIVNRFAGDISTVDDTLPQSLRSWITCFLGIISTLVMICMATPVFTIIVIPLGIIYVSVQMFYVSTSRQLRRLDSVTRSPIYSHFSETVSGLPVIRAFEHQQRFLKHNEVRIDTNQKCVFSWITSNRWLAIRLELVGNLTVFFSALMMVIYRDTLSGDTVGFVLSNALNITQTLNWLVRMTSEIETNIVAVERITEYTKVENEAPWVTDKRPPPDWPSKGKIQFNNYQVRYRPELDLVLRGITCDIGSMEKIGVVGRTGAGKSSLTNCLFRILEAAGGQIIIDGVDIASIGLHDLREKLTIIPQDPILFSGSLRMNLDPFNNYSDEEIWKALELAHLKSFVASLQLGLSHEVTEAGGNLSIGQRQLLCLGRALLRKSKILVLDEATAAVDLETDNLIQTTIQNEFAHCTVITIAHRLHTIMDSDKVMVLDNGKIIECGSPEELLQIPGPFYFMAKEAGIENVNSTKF
Chain of MDR1 (P08183 whole entry): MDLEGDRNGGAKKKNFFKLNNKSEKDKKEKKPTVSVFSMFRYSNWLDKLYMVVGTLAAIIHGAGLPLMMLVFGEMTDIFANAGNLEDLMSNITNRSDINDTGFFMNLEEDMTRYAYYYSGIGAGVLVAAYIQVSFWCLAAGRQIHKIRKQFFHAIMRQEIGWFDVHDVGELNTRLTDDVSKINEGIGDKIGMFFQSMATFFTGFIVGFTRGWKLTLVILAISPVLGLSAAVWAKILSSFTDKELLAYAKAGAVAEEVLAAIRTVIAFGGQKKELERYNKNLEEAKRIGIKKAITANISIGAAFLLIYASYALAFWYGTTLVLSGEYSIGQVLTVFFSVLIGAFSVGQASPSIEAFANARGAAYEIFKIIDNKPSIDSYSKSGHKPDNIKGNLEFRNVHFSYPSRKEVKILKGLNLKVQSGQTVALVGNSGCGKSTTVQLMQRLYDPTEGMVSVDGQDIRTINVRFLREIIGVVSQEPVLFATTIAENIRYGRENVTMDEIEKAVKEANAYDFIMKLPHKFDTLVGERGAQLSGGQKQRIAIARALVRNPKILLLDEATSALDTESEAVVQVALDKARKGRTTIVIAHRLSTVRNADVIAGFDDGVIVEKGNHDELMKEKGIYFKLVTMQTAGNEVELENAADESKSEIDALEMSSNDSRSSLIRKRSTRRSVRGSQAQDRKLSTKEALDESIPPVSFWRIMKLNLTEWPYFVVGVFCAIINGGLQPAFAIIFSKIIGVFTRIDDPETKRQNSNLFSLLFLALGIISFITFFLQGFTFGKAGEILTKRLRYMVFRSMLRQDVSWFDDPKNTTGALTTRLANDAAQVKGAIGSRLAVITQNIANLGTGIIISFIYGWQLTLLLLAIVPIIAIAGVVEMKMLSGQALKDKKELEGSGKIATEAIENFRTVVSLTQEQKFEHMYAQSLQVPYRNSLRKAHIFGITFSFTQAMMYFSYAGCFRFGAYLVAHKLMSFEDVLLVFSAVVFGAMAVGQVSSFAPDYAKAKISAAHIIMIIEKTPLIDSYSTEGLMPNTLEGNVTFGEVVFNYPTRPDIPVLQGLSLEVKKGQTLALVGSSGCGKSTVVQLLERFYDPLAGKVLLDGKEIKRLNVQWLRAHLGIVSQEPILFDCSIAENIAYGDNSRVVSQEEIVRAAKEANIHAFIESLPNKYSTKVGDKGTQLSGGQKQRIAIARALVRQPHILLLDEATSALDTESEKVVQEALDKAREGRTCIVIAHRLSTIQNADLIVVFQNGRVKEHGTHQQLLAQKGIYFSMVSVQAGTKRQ

Structure (SMILES): C[C@@H]1C[C@H]2[C@@H]3CCC4=CC(=O)C=C[C@]4(C)[C@@]3(F)[C@@H](O)C[C@]2(C)[C@@]1(O)C(=O)CO [Dexamethasone, dexamethasone]
- TNP-G formation, Liver microsome (rat liver microsomes): 2219.3 ± 52.8 ng/mL
- TNP-G formation, UGT1A1 (UGT1A1): 1542.4 ± 27.9 ng/mL

Structure (SMILES): CN(Cc1cnc2nc(N)nc(N)c2n1)c1ccc(C(=O)N[C@@H](CCC(=O)O)C(=O)O)cc1 [Methotrexate, methotrexate]
- BEI of TNP-G, % of the control cells (MRP2 [1]): 20%
- CLbile, int of TNP-G decreased by (MRP2 [1]): 74.2%

Structure (SMILES): CCCN(CCC)S(=O)(=O)c1ccc(C(=O)O)cc1 [Probenecid, probenecid]
- Vanadate-sensitive ATPase activities, MRP2 (MRP2 [2]): 5.7 ± 0.2 nmol/min/mg
- BEI of TNP-G, % of the control cells (MRP2 [1]): 22.8%
- CLbile, int of TNP-G decreased by (MRP2 [1]): 78.1%
- effect on TNP glucuronidation (rat liver microsomes): no significant effect
- TNP-G formation, Liver microsome (rat liver microsomes; 60 min, 100 µM): 2191.5 ± 123.1 ng/mL
- 24 h biliary excretion rate of TNP-G, % of the control level [3]: 74%
- TNP-G formation, UGT1A1 (UGT1A1): 1527.5 ± 83.9 ng/mL

Structure (SMILES): O=c1c(O)c(-c2ccc(O)c(O)c2)oc2cc(O)cc(O)c12 [Quercetin, quercetin]
- BEI of TNP, fold compared with the control (P-gp [4]; rat): 2.1 fold
- CLbile, int of TNP, fold compared with the control (P-gp [4]; rat): 1.7 fold
- TNP-G formation, Liver microsome (rat liver microsomes; 60 min, 100 µM): 2170.7 ± 33.6 ng/mL
- TNP-G formation, UGT1A1 (UGT1A1): 1590.8 ± 30.5 ng/mL

Structure (SMILES): O=C(O)c1cc(/N=N/c2ccc(S(=O)(=O)Nc3ccccn3)cc2)ccc1O [Sulfasalazine, sulfasalazine, reference compound]
- Vanadate-sensitive ATPase activities, BCRP (BCRP): 32.2 ± 1.3 nmol/min/mg

Structure (SMILES): COC12CCC3(CC1C(C)(O)CCc1cccs1)C1Cc4ccc(OC5OC(C(=O)O)C(O)C(O)C5O)c5c4C3(CCN1CC1CC1)C2O5 (stereo not shown) [TNP-G, thienorphine-3-glucuronide]
- Vanadate-sensitive ATPase activities, MDR1 (MDR1): 4.2 ± 0.8 nmol/min/mg
- Transporter substrate finding, MRP2 (MRP2 [2]): MRP2 substrate
- Vanadate-sensitive ATPase activities, MRP2 (MRP2 [2]): 4.1 ± 0.6 nmol/min/mg
- fu,p (plasma unbound fraction) [5]: 0.02
- CLbile,int of TNP-G (MRP2 [1]; dexamethasone 0 μM (control)): 4.2 ± 0.1 mL/min/kg
- CLbile,int of TNP-G (MRP2 [1]; methotrexate 0 μM (control)): 3.1 ± 0.4 mL/min/kg
- CLbile,int of TNP-G (MRP2 [1]; probenecid 0 μM (control)): 1.6 ± 0.03 mL/min/kg
- Vanadate-sensitive ATPase activities, BCRP (BCRP): 5.8 ± 0.8 nmol/min/mg
- increase in AUC0-t compared to the NC-siRNA group [6]: 1.9 fold
- increase in Cmax compared to the NC-siRNA group [6]: 2.7 fold
- AUC(0-t) ([6]; po, 12 mg/kg): 202.7 ± 70.7 ng·h/mL
- MRT ([6]; po, 12 mg/kg): 6.7 ± 1.7 h
- t1/2 ([6]; po, 12 mg/kg): 6.1 ± 1.1 h
- intracellular concentration, increase compared with the NC-siRNA group (MRP2 [7]): 2.1 fold
- AUC(0-t) (in vivo [8]; AUC(0-t)): 108 ± 19.6 ng·h/mL
- MRT (in vivo [8]; MRT): 5.7 ± 2 h
- half-life (in vivo [8]; t1/2): 4.3 ± 1.7 h
- dose excreted (in vivo [9]): ≤ 28%
- intracellular concentration, increase compared with the NC-siRNA group (P-gp [10]): not impacted
- CLbile,obs From Eq.5 [3]: 6.9 ± 0.5 mL/min/kg
- CLbile, int From Eq. 2 [11]: 11.2 ± 2.7 mL/min/kg
- CLbile,pred (plasma total concentration) relative to measured CLbile,obs [11]: ~1.3 fold
- CLbile,pred From Eq. 3 [11]: 8.7 ± 1.7 mL/min/kg
- CLbile,pred From Eq. 4 [11]: 0.2 ± 0.01 mL/min/kg
- average BEI (biliary excretion index) [11]: 41.4 ± 2.6

Structure (SMILES): COc1cc2c(cc1OC)CN(CCc1ccc(NC(=O)c3cc(OC)c(OC)cc3NC(=O)c3cnc4ccccc4c3)cc1)CC2 [Tariquidar, tariquidar]
- BEI of TNP, % of the control cells (P-gp [4]): 34.5%
- CLbile, int of TNP reduced to (P-gp [4]): 83.1%
- TNP-G formation, Liver microsome (rat liver microsomes; 60 min, 100 µM): 2154.6 ± 26.9 ng/mL
- cumulative bile excretion of TNP, % of the control level [3]: 45%
- TNP-G formation, UGT1A1 (UGT1A1; 60 min, 100 µM): 1533.8 ± 25.4 ng/mL
